“And” between values parts separate entries of the source, which are not always exact repeats. Equal values may be shown once. “Also recorded” adds a separate entry of the source.
Key:
blood = blood preservation: ATP content of refrigerated blood, 25, 50 and 100 mg per 10 ml; set-up: species or system dog
Description: The tests were also conducted under the conditions when 25mg, 50mg, and 100mg of FDP were mixed with 10ml of blood and 25mg, 50mg, and 100mg, of glucose were mixed with 10ml of blood. […]

[1] = system: dogs given potassium cyanide; experiment: potassium cyanide poisoning in dogs; assay type: in vivo, dog; details: 2 mg/kg IV potassium cyanide; 0.5 gm/kg over 30 minutes
[2] = system: hearts of mongrel dogs subjected to normothermic arrest; experiment: global ischemia on cardiopulmonary bypass, normothermic arrest for one hour; assay type: in vivo, dog
Description: To evaluate the effect of FDP on global ischemia, 14 mongrel dogs were placed on cardiopulmonary bypass and their hearts were subjected to normothermic arrest for one hour. Seven animals had 50 ml. of 5% glucose in 0.9% NaCl infused into the base of the aorta at 0 minutes, 20 minutes and 40 minutes following cross-clamping and, systemically, during reperfusion. The remaining 7 animals were treated identically except that 50 mg. of FDP was given instead of glucose and 2mg/kg/minute was infused systemically during reperfusion. Hemodynamic measurements were taken before ischemia and at 15 and 30 minutes following reperfusion using an isovolumetric technique.

[3] = system: fluid deprived dogs after endotoxin; experiment: endotoxin shock in fluid deprived dogs (1 mg/kg endotoxin); assay type: in vivo, dog; details: no fluid given; three pairs
Excerpt: In three pairs no fluid was given except for the FDP and glucose.

[4] = system: dogs subjected to endotoxin shock; experiment: endotoxin shock in dogs (E. coli endotoxin) with fluid support; assay type: in vivo, dog
Description: The study was also conducted to determine whether IV administration of FDP to dogs subjected to lethal doses of endotoxin will prevent damage to the intestinal mucosa, and death. The rationale was that endotoxin per se and its deleterious effect on hemolate phase acidosis inhibits glycolysis by inactivation of the rate limiting enzyme phosphofructokinase.
Endotoxin shock was produced in digs by IV injection of E. coli endotoxin. Survival of control animals which received glucose and volume replacement was 18%d while for those treated with FDP it was 90%.
FIG. 5 is a diagram showing the intestinal fluid loss and urine output of dogs subjected to endotoxin shock. Seven dogs were treated with equimolar FDP and eight received glucose. All animals received fluid supportive therapy (150 ml. of Rheomacrodex and 300 cc. of Lactate Ringer).
Seven were treated with FDP and the controls (8) received equimolar glucose.

[5] = system: dogs anesthetized with Surital; experiment: analeptic effect of intra-carotid administration on Surital (thiamylal) anesthesia in dogs; assay type: in vivo, dog; details: for time required for return of observable eyelid reflex: after beginning the infusion into the carotid artery (±SDM); for time required to regain walking ability: mean, p<0.001 FDP vs dextrose; for Able To Sit / Able To Walk / Eyes Open / Lifts Head / Response To Pain: time after beginning of infusion, individual dogs
Description: In this paired test 10 dogs were anesthetized with Surital 35mg/kg IV. Within 10 minutes after induction of anesthesia, a #7 Sones catheter was placed in a common carotid artery via the femoral artery under fluoroscopic guidance. […] Immediately following the contrast media injection the infusion of FDP or glucose was initiated (9-13 min. after induction of anesthesia). The FDP was prepared as a 5% solution and infused at a constant rate of 1.91 ml/min. (97.5 mg/min.) into a main carotid artery. The controls received equal amounts of 5% dextrose via the same route. The analeptic effect of FDP on signs, stages and depth of anesthesia was evaluated by determining the time required for reappearance of eyelid reflex, opening of eyes, deglutiton, response to pain, lifting of the head, sitting, and when the animal was able to walk.

[6] = tissue ATP, lactate, FDP and trioses after IV FDP; assay type: in vivo; details: IV administration
Excerpt: (§1) To allow for a broader and more complete interpretation of the results, a small paragraph will be devoted to the ability of FDP to cross the cellular membranes.

rabbit ileum = experiment: force of contraction of isolated rabbit ileum; details: added to perfusate
Excerpt: as §1

acute lethality in dogs = details: dog, in vivo; administered 500 mg/min in dogs; approximately
Excerpt: From an energetic point of view the advantage of using FDP as the initial substrate is that the net yield of the anaerobic metabolism of one mole of glucose is 2 ATP, while if one mole of FDP is metabolized in the same conditions it will produce 4 ATP because there is no phosphorylation of glucose and fructose-6-phosphate, reactions which require utilization of ATP. On the other hand, while doubling the quantity of ATP produced, lactate production remains the same as though one mole of glucose had been metabolized. It is obvious that in order to obtain results in the direction of making usuable energy from FDP, it is necessary to administer a large quantity. (The LD50 of FDP when administered 500 mg/min in dogs is approximately 5.8-6 g/kg.)

[7] = FDP distribution after intracardiac administration in rat; assay type: in vivo; details: 10 min after administration
Excerpt: as §1

[8] = system: dogs in surgical anesthesia; experiment: anesthetic requirement to maintain surgical anesthesia in dogs; assay type: in vivo, dog; details: FDP n=104 vs controls n=103
[9] = plasma lactic acid after intravenous FDP in dogs; assay type: in vivo, dog
Excerpt: as §1

[10] = system: dogs with acute regional myocardial ischemia; experiment: acute regional myocardial ischemia in dogs (coronary artery occlusion); assay type: in vivo, dog; details: FIG. 3; ischemic and normally perfused myocardium
[11] = system: dogs anesthetized with Surital; experiment: analeptic effect of intra-carotid administration on Surital (thiamylal) anesthesia in dogs; assay type: in vivo, dog; details: systemic administration
[12] = 25 mg with 10ml of blood, 24 hours
[13] = 25 mg with 10ml of blood, 48 hours
[14] = 50 mg with 10ml of blood, 24 hours
[15] = 50 mg with 10ml of blood, 48 hours
[16] = 100 mg with 10ml of blood, 24 hours
[17] = 100 mg with 10ml of blood, 48 hours
[18] = 5 g of FDP IV over 10 min, at one hour

SMILES: O=C[C@H](O)[C@@H](O)[C@H](O)[C@H](O)CO [glucose, reference compound]
- ATP (blood; [12]): 0.475 m mole/ml
- ATP (blood; [13]): 0.475 m mole/ml
- ATP (blood; [14]): 0.375 m mole/ml
- ATP (blood; [15]): 0.450 m mole/ml
- ATP (blood; [16]): 0.250 m mole/ml
- ATP (blood; [17]): 0.426 m mole/ml
- survival [1]: died
- ML to LVEDP of 20 mmHg ([2]; 15 minutes after reperfusion): 23.3 ± 1.8 mL
- Peak Effective pressure ([2]; 15 minutes after reperfusion): 36.9 ± 4.4 mmHg
- Peak Mean pressure ([2]; 15 minutes after reperfusion): 17.8 ± 4.2 mmHg
- Peak dp/dt ([2]; 15 minutes after reperfusion): 1126 ± 216 mmHg/sec
- ML to LVEDP of 20 mmHg ([2]; 30 minutes after reperfusion): 19.3 ± 1.3 mL
- Peak Effective pressure ([2]; 30 minutes after reperfusion): 50.8 ± 6.3 mmHg
- Peak Mean pressure ([2]; 30 minutes after reperfusion): 20.5 ± 2.9 mmHg
- Peak dp/dt ([2]; 30 minutes after reperfusion): 1698 ± 350 mmHg/sec
- ML to LVEDP of 20 mmHg ([2]; Pre-Ischemia): 51.4 ± 8.6 mL
- Peak Effective pressure ([2]; Pre-Ischemia): 144.6 ± 14.6 mmHg
- Peak Mean pressure ([2]; Pre-Ischemia): 66.4 ± 7.4 mmHg
- Peak dp/dt ([2]; Pre-Ischemia): 4894 ± 689 mmHg/sec
- time to death [3]: 21/2
- blood in the fluid lost from the intestine ([4]; dog, in vivo): In all controls there was blood in the fluid lost from the intestine
- survival ([4]; dog, in vivo): 18%
- time required for return of observable eyelid reflex [5]: 70.00 ± 25 min
- time required to regain walking ability [5]: 295.00 ± 24.49 min
- Able To Sit [5]: 300 min and 225 min and 310 min and 215 min
- Able To Walk [5]: 310 min and 300 min and 330 min and 280 min and 265 min
- Eyes Open [5]: 80 min and 75 min and 105 min and 54 min and 40 min
- Lifts Head [5]: 170 min and 135 min and 190 min and 165 min and 120 min
- Response To Pain [5]: 120 min and 130 min and 160 min and 125 min and 100 min

SMILES: O=C(COP(=O)(O)O)[C@@H](O)[C@H](O)[C@H](O)COP(=O)(O)O [FDP, fructose-1,6-diphosphate]
- ATP, lactate, and FDP in tissues [6]: increase of ATP, lactate, and FDP in all tissues that we have studied
- trioses in the Embden-Meyerhof pathway [6]: increases in the trioses
- ATP (blood; [12]): 1.67 m mole/ml
- ATP (blood; [13]): 1.92 m mole/ml
- ATP (blood; [14]): 2.2 m mole/ml
- ATP (blood; [15]): 2.85 m mole/ml
- ATP (blood; [16]): 2.82 m mole/ml
- ATP (blood; [17]): 3.40 m mole/ml
- force of contraction (rabbit ileum): increases the force of contraction
- survival [1]: survived
- ML to LVEDP of 20 mmHg ([2]; 15 minutes after reperfusion): 33.6 ± 3.7 mL
- Peak Effective pressure ([2]; 15 minutes after reperfusion): 102.1 ± 11.5 mmHg
- Peak Mean pressure ([2]; 15 minutes after reperfusion): 52.8 ± 5.4 mmHg
- Peak dp/dt ([2]; 15 minutes after reperfusion): 2242 ± 226 mmHg/sec
- ML to LVEDP of 20 mmHg ([2]; 30 minutes after reperfusion): 36.1 ± 3.3 mL
- Peak Effective pressure ([2]; 30 minutes after reperfusion): 125 ± 11.5 mmHg
- Peak Mean pressure ([2]; 30 minutes after reperfusion): 61.4 ± 5.1 mmHg
- Peak dp/dt ([2]; 30 minutes after reperfusion): 3999 ± 404 mmHg/sec
- contractility and compliance during recovery ([2]; Intra-aortic and systemic administration): Both contractility and compliance are vastly improved
- ML to LVEDP of 20 mmHg ([2]; Pre-Ischemia): 39.3 ± 3.2 mL
- Peak Effective pressure ([2]; Pre-Ischemia): 165 ± 12.9 mmHg
- Peak Mean pressure ([2]; Pre-Ischemia): 77.5 ± 4.6 mmHg
- Peak dp/dt ([2]; Pre-Ischemia): 4710 ± 689 mmHg/sec
- survival [3]: survived and are still living (five months after the experiment)
- LD50 (acute lethality in dogs): 5800 to 6000 mg/kg
- concentration of FDP in the liver versus plasma [7]: five
- anesthetic required [8]: twice as much anesthetic
- Urinary output ([4]; dog, in vivo): 276±98 ml/6 hours
- blood in the fluid lost from the intestine ([4]; dog, in vivo): no blood was observed; also recorded: no blood was noted
- intestinal fluid loss ([4]; dog, in vivo): 285±36 ml/6 hours
- stomach and intestine mucosa findings ([4]; dog, in vivo): only some vascular congestion was noted
- survival ([4]; dog, in vivo): 90%
- death, intestinal hemorrhage and fluid loss, renal function, mucosal necrosis ([4]; lethal doses of endotoxin): prevents death, intestinal hemorrhage and fluid loss, conserves normal renal function and protects the mucosa of the stomach and intestine from hemorrhagic necrosis
- time required for return of observable eyelid reflex [5]: 3.70 ± 0.67 min
- time to regain consciousness and be able to walk (in words) ([5]; intra-carotid administration): greatly reduces the time required for the animal to regain consciousness and be able to walk
- time required to regain walking ability [5]: 76.6 ± 16 min
- Able To Sit [5]: 48 min and 47 min and 35 min and 52 min and 40 min
- Able To Walk [5]: 60 min and 70 min and 50 min and 95 min and 82 min
- Eyes Open [5]: 7 min and 14 min and 5 min and 12 min and 4 min
- Lifts Head [5]: 28 min and 33 min and 14 min and 19 min and 20 min
- Response To Pain [5]: 17 min and 19 min and 10 min and 18 min and 15 min
- plasma lactic acid [9, 18]: 16.45±2.16 mg %
- plasma lactic acid increase [9, 18]: 21/2
- plasma lactic acid ([9]; before FDP (baseline)): 6.13±1.7 mg %
- ATP and CP content in the myocardium [10]: increase of ATP and CP in ischemic myocardium, but also in the normally perfused heart muscle
- tissue lactic acid concentration [10]: The same phenomenon was observed for the tissue lactic acid concentration
- analeptic effect [11]: The same analeptic effect, but to a much lesser degree

Reference: US5039665A, “Use of fructose-1,6-diphosphate for treating myocardial infarction” (priority 1990, dated 1991)
